The text below walks through data of patent publication US20250304609A1, “POLYMORPHIC FORM OF CHALCONE GLYCOSIDE COMPOUND, AND PREPARATION METHOD AND APPLICATION THEREOF” (ZHEJIANG YONGNING PHARMACEUTICAL CO., LTD., priority 2022, published 2025).

Data set [1] has as its system cerebral ischemia-reperfusion in rats. Briefly: Cerebral ischemia-reperfusion rat model, comparative test of calcium salt YN17 and sodium salt YN17-ST. Format: in vivo. The note with it: 10 mg/kg tail vein after 1 h ischemia; 24 h; Mean ± SEM; model 51.37 ± 2.66. Here is the method:
Establishment of cerebral ischemia-reperfusion rat models. Rats were anesthetized with pentobarbital sodium (45 mg/kg), the neck skin was prepared, the surgical skin was disinfected with iodophor, the neck skin was cut in the middle, the neck muscles were separated, and the left common carotid artery (CCA) was separated until the branches of the internal carotid artery (ICA) and external carotid artery (ECA) were exposed. […]
Determination of the extent of cerebral infarction. […] The area of each brain slice and the area of the infarcted area were measured by Image Pro software, and the percentage of the area of focuses of infarct to the total area was calculated.
The models were established and administered according to the similar method described above (YN17 (10 mg/kg) and YN17-ST (10 mg/kg) were injected into the tail vein immediately after blood supply to the middle cerebral artery of the rats was restored, and 5% glucose was injected into the tail vein in the model group. The rats were euthanized under anesthesia 24 hours after drug administration, and the extent of cerebral infarction was measured. The results were as follows: […]

The nature of data set [2]: Stability tests (accelerated and long-term) of salt and crystal forms. Format: physicochemical. The note with it: for Relevant substance, Single impurity / Relevant substance, Total impurities / Content determination: HPLC; for Content determination: content of C27H32O16; for pH: solution 5 mg per 1 ml in water. Here is the method: The crystal form A for the stability data in the following table is prepared by the method of Example 1. The intermediate was adopted, water was used as a system, calcium carbonate was added for reaction, the solution was filtered and then allowed to stand for crystallization, and subjected to suction filtration, and the filter cake was washed with water and dried by suction, and dried under reduced pressure at 30° C. for 4-6 hours to obtain the crystal form A.
For stability tests and inspection methods, please see the attached stability solutions and quality standards.
[Character] Ocular estimate method: this sample was a yellow powder.
[Examination] PH value: this sample was taken and added with water to make a solution containing 5 mg per 1 ml. According to the pH value determination method (Chinese Pharmacopoeia 2020 Edition Fourth General Rule 0631), the pH value should be 5.0-7.0.
Relevant substances. Determination of relevant substances was performed according to high-performance liquid chromatography (Chinese Pharmacopoeia 2020 Edition Fourth General Rule 0512).
Test sample solution. An appropriate amount of this sample was taken, accurately weighed, dissolved by addition of a diluent, and diluted quantitatively to prepare a solution containing 1.0 mg per 1 ml. The solution was shaken well, filtered through a microporous filter membrane (0.45 μm), and the subsequent filtrate was taken.
Chromatographic conditions. Octadecylsilane bonded silica gel was used as a filler: […] potassium dihydrogen phosphate solution (1.36 g of potassium dihydrogen phosphate was taken into a 1000 mL measuring flask, dissolved by addition of water, and diluted to the scale) was used as a mobile phase A, methanol was used as a mobile phase B, and gradient elution was performed according to the following table; the detection wavelength was 375 nm; and the injection volume was 5 μl.
Limit If there were impurity peaks in the chromatogram of the test sample solution, the area of a single impurity peak shall not be greater than 0.005 times (0.5%) the total peak area, and the sum of the areas of each impurity peak shall not be greater than 0.015 times (1.5%) the total peak area. Chromatographic peaks less than 0.02% of the peak area of the main component can be ignored.
Water content This sample was taken, and according to the method for water content determination (Chinese Pharmacopoeia 2020 Edition Fourth General Rule 0832 First Method), the water content shall not exceed 15.0%.
Calcium element Determination of calcium element was performed according to inductively coupled plasma mass spectrometry (Chinese Pharmacopoeia 2020 Edition Fourth General Rule 0412).
[Content determination] Content determination was performed according to high-performance liquid chromatography (Chinese Pharmacopoeia 2020 Edition Fourth General Rule 0512).
Chromatographic conditions. Octadecylsilane bonded silica gel was used as a filler, methanol-acetonitrile-water-phosphoric acid (26:2:72:0.04) was used as a mobile phase, and detection wavelength was 403 nm; and the injection volume was 10 μl.
Determination method. The test sample solution and comparative sample solution were accurately measured, and injected into the liquid chromatograph separately, and the chromatogram was recorded. The content of C27H32O16 in the test sample was calculated by the peak area according to the external standard method.

For data set [3], the system named is cerebral ischemia-reperfusion rat models. The data set can be described thus: Cerebral ischemia-reperfusion (MCAO) rat model, different doses of YN17. Format: in vivo, rats. The note with it: for Percentage of whole brain tissue infarction (%) / Symptom score: 3 mg/kg tail vein, Mean ± SD; for Percentage of whole brain tissue infarction (%): 24 h, TTC staining, model 17.61 ± 7.45; for Symptom score: 24 h after administration, 0-5 points, model 3.3 ± 0.7. Here is the method:
Establishment of cerebral ischemia-reperfusion rat models. Rats were anesthetized with pentobarbital sodium (45 mg/kg), the neck skin was prepared, the surgical skin was disinfected with iodophor, the neck skin was cut in the middle, the neck muscles were separated, and the left common carotid artery (CCA) was separated until the branches of the internal carotid artery (ICA) and external carotid artery (ECA) were exposed. The proximal end of the common carotid artery was ligated, the distal end of the common carotid artery was clamped with an artery clip, an incision was made between the two ligated ends of the common carotid artery, the MCAO suture was inserted, and the suture was loosely ligated to the common carotid artery. The MCAO suture was inserted into the internal carotid artery, so that the suture reached the branches of the internal carotid artery to the middle cerebral artery (MCA), blocking the blood supply of the MCA and causing ischemia, the MCAO suture was fixed, and the surgical incision was sutured. After 1 h of ischemia, the MCAO suture was withdrawn into the common carotid artery to restore blood supply to the middle cerebral artery.
Drug administration. After the surgery, the rats were immediately injected with YN17 (5 mg/kg, 10 mg/kg and 20 mg/kg) via the tail vein, while the positive control group was injected with 3 mg/kg of edaravone via the tail vein. The rats were euthanized under anesthesia 24 hours after drug administration.
Animal neurobehavioral assessment. 24 hours after administration, the activity of the rats after landing was observed, and the behavior disorders of the rats were scored. The scoring method was as follows: • 0 points: no loss of neurological function and normal activity; • 1 point: failure to fully extend the left forepaw on the opposite side of the lesion; • 2 points: failure of the paralyzed side to resist the thrust from the opposite side; • 3 points: circling to the left side when crawling (tail-chasing sign); • 4 points: falling to the paralyzed side when shaking or walking; and • 5 points: trance or loss of consciousness.
Determination of the extent of cerebral infarction. The rats were euthanized under anesthesia 24 hours after drug administration. The brain was removed and rinsed with normal saline at 4° C. The brain was frozen at −80° C. for 10 min, and coronal slices with a thickness of 2 mm were cut from posterior to anterior, incubated in a 1% TTC solution for 10 min at 37° C., and fixed with formalin overnight after staining. The photos of the brain slices were taken and saved. The area of each brain slice and the area of the infarcted area were measured by Image Pro software, and the percentage of the area of focuses of infarct to the total area was calculated.

The mark [4] stands for this setting: Accelerated 6 months, 40° C. ± 2° C./75% ± 5% RH.
Where [5] appears, read: Long-term 6 months, 25° C. ± 2° C./60% ± 5% RH.
Where [6] appears, read: 3 mg/kg, 24 h after modeling, p<0.001.

Molecules are shown by their SMILES. Where “and” joins values, the source holds several entries; their conditions need not be identical. Equal values may be shown once.

For the compound `O=C(C=Cc1ccc(O)cc1)C1=C(O)C(C2OC(CO)C(O)C(O)C2O)=C([O-])C(O)(C2OC(CO)C(O)C(O)C2O)C1=O.[Na+]` (stereo not shown) [YN17-ST], the “Percentage of hemispheric tissue infarction (%)” value in data set [1] is 23.35% and 23.35 ± 7.37 %. For the same compound, in data set [2] (0 months), the Character entry is given as “Yellow”; the Water content is recorded as 2.3%; the “Relevant substance, Single impurity” value is listed as 0.36%; the “Relevant substance, Total impurities” value was 0.95%. For the same compound, in data set [2] (0 months), the Content determination came to 95.3% and the pH stood at 6.0. Besides, in data set [2] (setting [4]), the Character entry is reported as “Yellow”; the Water content is given as 7.3%; the “Relevant substance, Single impurity” value is recorded as 6.41%; the “Relevant substance, Total impurities” value was determined as 9.53%. Also, in data set [2] (setting [4]), the Content determination was found to be 81.5% and the pH was determined as 6.8. In data set [2] (setting [5]), the Character entry is recorded as “Yellow”; the Water content is listed as 5.7%; the “Relevant substance, Single impurity” value is 1.86%; the “Relevant substance, Total impurities” value is recorded as 3.02%. Moreover, in data set [2] (setting [5]), the Content determination was determined as 91.7% and the pH was 6.4.

Regarding `CC1=NN(c2ccccc2)C(=O)C1` [Edaravone, edaravone], in data set [3], the “Percentage of whole brain tissue infarction (%)” value stood at 10.58 ± 5.31 % and the Symptom score was 2.1 ± 1.3. Further, in data set [3] (listed as edaravone), the “Percentage of whole brain tissue infarction (%)” value is given as “significantly inhibit” and the Symptom score result was “significantly improve”. Further, in data set [3] (setting [6]), the “content of GSH-px in serum” value was “significantly increase” and the “content of SOD in serum” value is recorded as “significantly increase”.
